Key:
HCV genotype 1b replicon = test: HCV Replicon Assay; format: cell-based; settings: Hepatitis C virus, 72 h, Zluc cells (Huh-7-derived, HCV genotype 1b replicon, luciferase reporter), 72 hours; read-out: HCV Replicon EC50
Procedure, shortened: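 Zluc Huh-7 cells with HCV genotype 1b replicon and luciferase reporter treated with 5-fold dilutions (100 μM to 0.0000512 μM final) in duplicate, or at 1 and 10 μM. Luminescence read with ONE-glo; EC50 from dose-response fits, or % inhibition at the fixed concentrations.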

[1] = Stability in simulated gastric fluid; format: in vitro ADME; settings: 100 μM, 2 hours at 37° C., percent of the peak area at time zero
Procedure, shortened: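 Compounds at 100 μM final, in duplicate, kept 2 h at 37° C in USP gastric fluid (pepsin) or intestinal fluid (pancreatin). Quenched with cold acetonitrile, supernatant analysed by C-18 HPLC, UV 252 nm. Remaining compound expressed as percent of time-zero peak area.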

Stability in mouse blood = format: in vitro ADME; settings: on ice, percent unchanged test compound
Procedure, shortened: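 Test compound at 0.5 μM final in whole blood, held on ice; sampled at 0, 0.5 and 1 hr in triplicate. Samples quenched with acetonitrile containing internal standard and analysed by LC-MS/MS; percent unchanged compound from peak area ratio to internal standard.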

[2] = Stability in liver subcellular fractions (microsomes); format: in vitro ADME, human; settings: 10 μM, 1.0 mg/mL microsomal protein, NADPH, 60 min, percent unchanged test compound
Protocol: Stability of compounds were determined in subcellular fractions (microsomes) of human liver in duplicate for each matrix. Pooled liver microsomal proteins (1.0 mg/mL), suspended in incubation buffer (100 mM potassium phosphate, pH 7.4, 5 mM MgCl2, and 0.1 mM EDTA), were preincubated for 5 min at 37° C. with 10 μM of a test compound from a 10 mM stock solution in DMSO (final DMSO concentration was 0.1%); the reaction was initiated by the addition of NADPH (3 mM final concentration). At specific times (0 and 60 min), 0.1 mL samples were taken and the reaction terminated by the addition of 4 volumes of stop solution (acetonitrile with 500 ng/mL carbutamide as an internal standard). The samples were vortexed for 30 sec and then centrifuged at 16,000 g for 10 min. 100 μL of supernatants were transferred to 96 deep-well plates preloaded with 100 μL distilled water and analyzed after mixing by LC-MS/MS. The MS peak area ratio of the test compounds versus the internal standard was calculated and percent unchanged test compound over 60 minutes was calculated using this ratio.

[3] = Plasma pharmacokinetics following a single oral dose in CD-1 mice; format: in vivo; settings: single oral dose 25 mg/kg in PEG 200, CD-1 male mice; given at 1 μmol/kg
Procedure, shortened: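 Male CD-1 mice given a single oral 25 mg/kg dose in PEG 200, with terminal plasma and liver taken from three animals per time point at 4, 12 and 24 h. Plasma 2′-methylguanosine measured by LC-MS/MS in positive ion mode with a deuterated internal standard, calibrated over 0.500 (LLOQ) to 200 ng/mL.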

In the case of `CCOc1nc(N)nc2c1ncn2[C@@H]1O[C@@H]2COP(=O)(OCCCC(=O)OC(C)C)O[C@H]2[C@@]1(C)F` (single isomer, unassigned) [Compound 20 Diastereomer 1], the EC50 (HCV genotype 1b replicon) is reported as < 250 nM, the “Stability SGF” value [1] is reported as 98% and the “Stability WB_Mouse (ice; 1 hr)” value (Stability in mouse blood) is reported as 1%. For the same compound, the “Stability HLM (1 hr)” value [2] was 0.35%, the “Ms Plasma 2′-MeG AUC” value [3] was 58 pmol · hr/mL at 1 μmol/kg and the “Ms Plasma 2′-MeG Cmax” value [3] was 5.9 pmol/mL at 1 μmol/kg.
